The term solubility denotes the dissolved amount per volume that the medium holds. What is called Papp is the rate of passage across a membrane or cell layer, normalised by area and donor concentration.

Values after ≈ are worked out from the molar mass of the structure shown.

This is an account of results in article PMC11511194, “Key Factors for Improving Predictive Accuracy and Avoiding Overparameterization of the PBPK Absorption Model in Food Effect Studies of Weakly Basic Water-Insoluble Compounds in Immediate Release Formulations” (Pharmaceutics, 2024).

One data set can be described thus: physchem. As to conditions: for User log K m:w, ion / User log K m:w, neutral: bile micelle to buffer partition, Evaluated by SIVA software. As to the method:
In this manuscript, PBPK absorption models were developed using SimCYP software (version 20, Sheffield, UK, Certara Company), while the primary solubility parameters were evaluated utilizing SIVA software (version 4, Sheffield, UK, Certara Company). The comprehensive process of parameter evaluation is as follows: Intrinsic solubility (So) and salt limiting solubility factor (SF) values were obtained according to the solubility of the API in different aqueous media and the Henderson–Hasselbalch equation (Equation (1)). Subsequently, the bile micelle to buffer partition coefficients (Km:w) in both ionized (Km:w, ionized) and un-ionized (Km:w, un-ionized) states were evaluated based on the solubility of the APIs in FaSSGF, FaSSIF, and FeSSIF media, employing Equation (1). (1) STot=So×Soscalart×1+BSt/CH2O×Km:w, un-ionized+Sit×1+BSt/CH2O×Km:w, ionized+Sbound,excipt where t is the time; STot is the total solubility of the drug in a given medium (aqueous or biorelevant medium); So is the intrinsic solubility of the drug; Soscalar is the scalar for So used to capture the increased solubility of the drug in a given medium; Si is the ionized aqueous solubility; [BS] is the bile salt concentration in a given biorelevant medium; CH2O is the concentration of water; Km:w, ionized/un-ionized are the bile micelle/buffer partition coefficients for ionized and un-ionized species, respectively; and Sbound, excip is the amount of drug bound to the excipient at a given excipient concentration.

A further data set deals with CYP3A4. As to the kind of experiment: CYP3A4 intrinsic clearance fitted in PBPK model. As to conditions: Fitted to clinical PK profiles. An excerpt:
S2. PBPK model development and validation physicochemical parameters for these three model drugs, including protein binding and Blood-to-Plasma (B/P) ratio, were obtained from experimental results, while log P and pKa were estimated based on the molecular formula using Gastro Plus ADMET software (version 10.3, […]
S2.1. Rivaroxaban PBPK model development and validation
S2.1.1. Rivaroxaban PBPK model development for metabolism and elimination module Given that the metabolic fractions of CYP3A4 and CYP2J2 to the systemic clearance of rivaroxaban were approximately 18% and 14% [1], respectively, and liver hydrolases contributed to about 14% of its systemic clearance, CLint_CYP3A4, CLint_CYP2J2 and CLHLM were fitted according to the metabolic fraction of rivaroxaban in vivo and concentration-time profiles from the SAD clinical trial in Caucasian subjects under fasted state. Considering that rivaroxaban was a substrate of P-gp transporter, and that about 36% and 7% of the parent drug were directly excreted by the kidney and liver, respectively, rivaroxaban may undergo active efflux through the kidney and liver in vivo [2]. Consequently, permeability-limited kidney and liver models were employed to account for the active efflux mechanism of P-gp for rivaroxaban. These models include both passive diffusion and active transport.
Clearances for passive diffusion in the kidney and liver was calculated using Equation S1 [5] and Equation S2 [6], respectively.
CL௉஽,௜ =2×P௔௣௣ × TSA௜ ሺS1ሻ where CLPD,i is the passive diffusion clearance of the drug in compartment i, Papp is the apparent permeability of the drug, and the TSAi is the regional tubular surface area of compartment i.
Log CL௉஽ =0.82×logD଻.ସ +0.5 ሺS2ሻ where CLPD is the passive diffusional clearance of APIs in the liver, and log D 7.4 is the oil-water partition coefficient at pH 7.4 [6] […]
Blood-to-plasma partition ratio 0.714 Measured
Fraction unbound in plasma 0.065 Measured […]
Caco-2(10-6cm/s) (Rivaroxaban) 8.103 Measured […]

The nature of data set [1]: Particle size distribution of the APIs (laser diffraction, dry method). The format is physicochemical. As to conditions: API bulk drug. As for the experimental part:
The particle size of the API directly influences the dissolution rate of formulations and the overall bioavailability of the compound, making it a necessary parameter for establishing the PBPK absorption model. To determine the particle size distributions of the APIs employed in the formulation of rivaroxaban, ticagrelor, and PB-201, the bulk drugs used in the corresponding formulations were measured by the dry method with a Malvern Mastersizer laser diffraction size analyzer (Master 2000, Malvern Instruments Limited, Malvern, UK). Each sample was tested once.

For data set [2] the following is noted: in vivo, cited from earlier work.
A short description of data set [3]: Apparent permeability assay in biorelevant media (PAMPA). It counts as in vitro ADME. As to conditions: for PAMPA: optimized ticagrelor model input; for Papp: PAMPA, parallel artificial membrane. As to the method:
In light of observed distinctions in the apparent permeability of drugs in biorelevant media compared to standard media, the apparent permeability of ticagrelor in FaSSIF and FeSSIF media was measured using the published method with the parallel artificial membrane. The apparent permeability of rivaroxaban and PB-201 (Drug-A) in biorelevant media was referenced from the published results.

Consider `O=C(NC[C@H]1CN(c2ccc(N3CCOCC3=O)cc2)C(=O)O1)c1ccc(Cl)s1` [Rivaroxaban], for which the concentration in solution in the data set “physchem” (aqueous buffer) (solubility) came to 5 µg/mL (≈ 11.5 µM). Moreover, in the data set “physchem”, the “User log K m:w, ion” value worked out at 3.894 and the “User log K m:w, neutral” value amounted to 3.330. For the same molecule, the “Intrinsic clearance of CYP 3A4” value in the data set on CYP3A4 came out at 0.027 µL/min/pmol. In data set [1], the “D (0.1)” value was 3.809 μm, the “D (0.5)” value came out at 7.955 μm and the “D (0.9)” value is on record as 15.532 μm. Further, in data set [2] (supplement ref 1), the “metabolic fraction of CYP2J2 to the systemic clearance” value is given as “about 14%”, the “metabolic fraction of CYP3A4 to the systemic clearance” value was “approximately 18%”, the “parent drug directly excreted by the kidney” value is “about 36%” and the “parent drug directly excreted by the liver” value is given as roughly 7%. For the same molecule, the “contribution of liver hydrolases to systemic clearance” value in data set [2] (supplement ref 2) is “about 14%”.

With `CCCSc1nc(N[C@@H]2C[C@H]2c2ccc(F)c(F)c2)c2nnn([C@@H]3C[C@H](OCCO)[C@@H](O)[C@H]3O)c2n1` [Ticagrelor], in “physchem”, the “User log K m:w, ion” value amounted to 8.226 and the “User log K m:w, neutral” value came to 5.941. The PAMPA in data set [3] (Fasted (FaSSIF)) was 90.2 10E-06 cm/s. The PAMPA in data set [3] (Fed (FeSSIF)) is 14.30 10E-06 cm/s. The Papp in data set [3] (FaSSIF) was 90.2 ×10⁻⁶ cm/s. Further, the Papp in data set [3] (FeSSIF) is 14.3 ×10⁻⁶ cm/s. In addition, the “Intrinsic clearance of CYP 3A4” value in the data set on CYP3A4 was 5.00 µL/min/pmol. Besides, in data set [1], the “D (0.1)” value stood at 3.045 μm, the “D (0.5)” value is recorded as 6.926 μm and the “D (0.9)” value was 13.605 μm.
